Laboratory results reported in patent US6630124B1, “Combination therapy with VIP antagonist” (Ramot-University Authority for Applied Research and …, priority 1998, dated 2003).
In brackets after ≈: the same amount, converted by molar mass. Entries after “also recorded” stand apart in the source; their conditions may differ. Read-outs that look alike come from different tables or passages of the source. One block for each compound: values may come before it.

Columns and labels:
[1] = tested on: lung (NCI-H157 and NCI-H1299), breast (MCF-7), pancreatic (CAPAN) and prostate (PC-3) cancer cell lines; assay: MTT assay, Taxol with or without SNVIPhyb, summary over epithelial cancer cell lines
Excerpt: The effects of SNVIPhyb were then investigated in the presence of Taxol, which affects microtubules, causing dividing cells to arrest in the mitosis (M) phase of growth.
The effect of SNVIPhyb was investigated on other epithelial cancer cell lines.

[2] = tested on: NCI-H727 non-small cell lung cancer (carcinoid); assay: MTS cell proliferation assay, SNH and chemotherapy; format: cell-based; conditions: 8 μM SNH 2 h, then Taxol 0.003-1 μg/ml 4 h, then fresh medium 66 h
[3] = tested on: MCF-7 breast cancer cells; assay: MTT assay, Taxol with or without SNVIPhyb; format: cell-based; conditions: for IC50: Homo sapiens, MCF7
Excerpt: (§1) The ability of SNVIPhyb to inhibit cancer growth was investigated.

[4] = tested on: CAPAN pancreatic cancer cell line; assay: MTT assay, Taxol with or without SNVIPhyb; format: cell-based
Excerpt: as §1

[5] = tested on: PC-3 prostate cancer cell line; assay: MTT assay, Taxol with or without SNVIPhyb; format: cell-based
Excerpt: as §1

[6] = tested on: NCI-H1299 lung cancer cell line; assay: MTT assay, Taxol with or without SNVIPhyb; format: cell-based; conditions: Homo sapiens
Excerpt: as §1

[7] = tested on: NCI-H157 lung cancer cell line; assay: MTT assay, Taxol with or without SNVIPhyb; format: cell-based; conditions: Homo sapiens
Excerpt: as §1

[8] = tested on: NCI-H727 non-small cell lung cancer (carcinoid); assay: MTS cell proliferation assay, SNH and chemotherapy; format: cell-based; conditions: for nature of the combined effect with SNH: combination with SNH
Method: NCI-H727 and LNCaP were grown in RPMI 1640 medium supplemented with 10% heat inactivated FCS, L-glutamine and antibiotics. HT-29 and CT-26 were grown in DMEM medium supplemented with 10% heat-inactivated FCS (fetal calf serum), L-glutamine and antibiotics. The cells were cultured in 5% CO2/95% air at […] and used during their exponential growth phase. Routinely, the cells which are adherent, were split when a subconfluent monolayer was formed. In different experiments, various concentration of FCS were used. For growth inhibition experiments, subconfluent adherent cells were washed with PBS and treated with trypsin/versene. The cells were pelleted and resuspended in medium to a final concentration of 75,000 cells/mL for NCI-H727. 50,000 cells/mL for LNCaP and HT-29 and 25000 cells/mL for CT-26. These different concentrations were used in order to avoid confluence in the wells at the end of the experiment and correspond to the different doubling times of the cell lines. On day 0, cells suspensions […] were dispensed using a multi-channel pipet into the individual wells of a 96-well tissue culture plate (Nuncion, Nunc Brand Products). […] Cells were incubated for 24 hours in a humidified atmosphere of 95% air/5% CO2 at 37° C. before treatment. On day 1, the cells were treated with different drugs and schedules and maintained under the same conditions. On day 4, viable cell number was determined by a modified MTT assay i.e., MTS non-radioactive cell proliferation assay (Promega). […] Results were finally expressed as percentage of the control, which was obtained from the samples with no drug treatment. Dose-response curves were plotted using a Sigma-Plot software and statistically analyzed using Student test. To determine the effect of the lipophilic VIP antagonist SNH on cell proliferation, cells plated in 96-well microplates for 24 hours as described, were treated with various concentrations of SNH. The peptide was diluted in PBS and […] of the peptide solution was added to each well for a final concentration of the peptide between 10^−510^−9 M. The solvent was added to the control wells. […] A dose-response curve was obtained at concentrations ranging from 2 μM-10 μM (see, FIG. 2). […] The effects of an 8 hours treatment were slightly less, showing that most of the effect is in the initial hours of exposure and much more dose than time dependent. […] For the experiments with the combinations of VIP antagonists and chemotherapeutic agents, on day 0, the cells were plated for 24 hours in medium supplemented with 5% FCS. On day 1, the peptide was added to the wells followed 1 hour later by the chemotherapeutic agents. […] The chemotherapeutic drugs were tested over 7 concentrations, covering as much as possible of the dose response curve of each individual drug. 24 hours later, the medium was exchanged and the cells incubated under the same conditions for another 48 hours. On day 4 the number of viable cells was determined by MTS assay.

MDA-MB231 xenografts = assay: MDA-MB231 breast cancer xenografts in nude mice; format: in vivo, Balb/c nude mice; conditions: after 4 weeks; VIPhyb 10 μg/day s.c., Taxol 1.5 mg i.p. once; PBS control 1121 mm^3
Method: To test the proliferative aspects of VIPhybrid analogs in vivo, nude mice bearing breast cancer xenografts were utilized. Female athymic Balb/c nude mice, 4-5 weeks old, were housed in a pathogen-free temperature controlled isolation room and the diet consisted of autoclaved rodent chow and autoclaved water given ad libitum. MDA-MB231 cells (1×10^7) were injected into the right flank of each mouse subcutaneously. […] PBS (100 μl) or VIPhyb analogs (10 μg/day) were injected subcutaneously adjacent to the tumor. Taxol was injected once (1.5 mg i.p.) after 2 weeks. The tumor volume (height×width×depth) was determined twice weekly by calipers and recorded.

[9] = tested on: cell lines derived from colon cancer and prostate cancer; assay: MTS colorimetric proliferation assay, VIP antagonist with chemotherapeutic agents (Example I); format: cell-based; conditions: combination with stearyl-Nle17-neurotensis 6-11 VIP 7-28
Method: Assays were performed with cell lines derived from colon cancer and prostate cancer. Proliferation was assessed using the MTS colorimetric assay of mitochondrial function for living cells. The VIP antagonist (stearyl-Nle17-neurotensis 6-11 VIP 7-28) was used.

[10] = tested on: CT-26 murine colon cancer; assay: MTS cell proliferation assay, SNH and chemotherapy; format: cell-based; conditions: CT-26, SNH and CPT-11 (FIG. 10)
Method: NCI-H727 and LNCaP were grown in RPMI 1640 medium supplemented with 10% heat inactivated FCS, L-glutamine and antibiotics. HT-29 and CT-26 were grown in DMEM medium supplemented with 10% heat-inactivated FCS (fetal calf serum), L-glutamine and antibiotics. The cells were cultured in 5% CO2/95% air at […] and used during their exponential growth phase. Routinely, the cells which are adherent, were split when a subconfluent monolayer was formed. In different experiments, various concentration of FCS were used.
For growth inhibition experiments, subconfluent adherent cells were washed with PBS and treated with trypsin/versene. The cells were pelleted and resuspended in medium to a final concentration of 75,000 cells/mL for NCI-H727. 50,000 cells/mL for LNCaP and HT-29 and 25000 cells/mL for CT-26. […]
On day 4, viable cell number was determined by a modified MTT assay i.e., MTS non-radioactive cell proliferation assay (Promega). Briefly, […] of freshly prepared MTS/PMS solution was added to each individual well and after 1-3 hours of incubation (the optimal time was determined for each cell line) absorbance at 490 nm was measured using a multiscan plate reader. Results were finally expressed as percentage of the control, which was obtained from the samples with no drug treatment. Dose-response curves were plotted using a Sigma-Plot software and statistically analyzed using Student test. […]

HT-29 human colon cancer = assay: MTS cell proliferation assay, SNH and chemotherapy; format: cell-based; conditions: HT-29, SNH and CPT-11 (FIG. 11)
Method: NCI-H727 and LNCaP were grown in RPMI 1640 medium supplemented with 10% heat inactivated FCS, L-glutamine and antibiotics. HT-29 and CT-26 were grown in DMEM medium supplemented with 10% heat-inactivated FCS (fetal calf serum), L-glutamine and antibiotics. The cells were cultured in 5% CO2/95% air at […] and used during their exponential growth phase. Routinely, the cells which are adherent, were split when a subconfluent monolayer was formed. In different experiments, various concentration of FCS were used. For growth inhibition experiments, subconfluent adherent cells were washed with PBS and treated with trypsin/versene. The cells were pelleted and resuspended in medium to a final concentration of 75,000 cells/mL for NCI-H727. 50,000 cells/mL for LNCaP and HT-29 and 25000 cells/mL for CT-26. These different concentrations were used in order to avoid confluence in the wells at the end of the experiment and correspond to the different doubling times of the cell lines. […] On day 4, viable cell number was determined by a modified MTT assay i.e., MTS non-radioactive cell proliferation assay (Promega). […] Results were finally expressed as percentage of the control, which was obtained from the samples with no drug treatment. Dose-response curves were plotted using a Sigma-Plot software and statistically analyzed using Student test. […] On day 4 the number of viable cells was determined by MTS assay.

IC50 ([1]; read-out: IC50 values over the cell lines): 8 to 15 µg/mL (≈ 9.37 to 17.6 µM)
IC50 ([1]; read-out: IC50 values over the cell lines in the presence of 10 μM SNVIPhyb): 2.5 to 5 µg/mL
IC50 ([3]; MCF-7, 3 μM SNVIPhyb, read-out: IC50 in the presence of 3 μM SNVIPhyb): 24 µg/mL
IC50 ([3]; MCF-7, 10 μM SNVIPhyb, read-out: IC50 with 10 μM SNVIPhyb): 2 µg/mL (≈ 2.34 µM)
IC50 ([3]; MCF-7, Taxol alone, read-out: IC50): 12 µg/mL (≈ 14.1 µM)
IC50 ([4]; 10 μM SNVIPhyb, read-out: IC50 with 10 μM SNVIPhyb): 3 µg/mL (≈ 3.51 µM)
IC50 ([4]; Taxol alone, read-out: IC50): 10 µg/mL (≈ 11.7 µM)
IC50 ([5]; PC-3, 10 μM SNVIPhyb, read-out: IC50 with 10 μM SNVIPhyb): 5 µg/mL (≈ 5.86 µM)
IC50 ([5]; PC-3, Taxol alone, read-out: IC50): 15 µg/mL (≈ 17.6 µM)
IC50 ([6]; NCI-H1299, 10 μM SNVIPhyb, read-out: IC50 with 10 μM SNVIPhyb): 3 µg/mL (≈ 3.51 µM)
IC50 ([6]; NCI-H1299, Taxol alone, read-out: IC50): 8 µg/mL (≈ 9.37 µM)
IC50 ([7]; NCI-H157, 10 μM SNVIPhyb, read-out: IC50 with 10 μM SNVIPhyb): 2.5 µg/mL (≈ 2.93 µM)
IC50 ([7]; NCI-H157, Taxol alone, read-out: IC50): 10 µg/mL (≈ 11.7 µM)
Compound: CC(=O)O[C@H]1C(=O)[C@@]2(C)[C@H]([C@H](OC(=O)c3ccccc3)[C@]3(O)C[C@H](OC(=O)[C@H](O)[C@@H](NC(=O)c4ccccc4)c4ccccc4)C(C)=C1C3(C)C)[C@]1(OC(C)=O)CO[C@@H]1C[C@@H]2O [Taxol]
interaction with SNVIPhyb at inhibiting cancer cell proliferation ([1]; combination with SNVIPhyb): synergistic
increase of potency in the presence of SNVIPhyb ([1]; epithelial cancer cells): 3-6 fold
reduction of the IC50 of Taxol by SNH [2]: about 6 fold
increase of cytotoxicity by SNVIPhyb ([3]; MCF-7, combination with SNVIPhyb): increases the cytotoxicity
effect on MCF-7 cells ([3]; Taxol at 1 μg/mL): little effect
nature of the combined effect with SNH [8]: very effective; also recorded: synergistic
tumor volume (height×width×depth) (MDA-MB231 xenografts): 613 mm^3

Compound: CCc1c2c(nc3ccc(OC(=O)N4CCC(N5CCCCC5)CC4)cc13)-c1cc3c(c(=O)n1C2)COC(=O)[C@]3(O)CC [CPT-11]
effect of the combination with the VIP antagonist [9]: synergistic
enhancement of the antiproliferative activity of the chemotherapeutic agent by the lipophilic VIP antagonist [9]: enhance the antiproliferative activity
effect of the combination with SNH [10]: enhancing effect
reduction of the IC50 of the chemotherapeutic agent by SNH ([8]; 5 μM SNH, NCI-H727): at least two-fold
nature of the combined effect with SNH [8]: synergistic
effect of the combination with SNH (HT-29 human colon cancer): enhancing effect
